PMC6900558 (Acta Pharmaceutica Sinica. B, 2019)
Like-named read-outs stand apart in the source and are kept apart here.

Key:
Experimental logD = format: physicochemical; details: PBS (aqueous phase; partition solvent not stated), pH 7.4
σ1R [1] = molecular target: T1, σ1R (Mus musculus, UniProt O55242); test: In vivo PET-CT imaging with [^11C]HCC0923 in mice brain; set-up: species or system mice (BALB/c); details: self-blocking, 12.5 mg/kg i.v. 5 min before tracer
guinea pig σ1 receptor [2] = molecular target: T2, guinea pig σ1 receptor (Cavia porcellus, UniProt Q60492); test: Ex vivo σ1 receptor binding assay; details: for Selectivity (σ2R/σ1R): ratio of σ2R Ki to σ1R Ki
guinea pig σ2 receptor = details: read-out: σ2R Ki; cited from earlier work
σ1R [3] = molecular target: T1, σ1R; test: In vivo PET-CT imaging with [^11C]HCC0929 in mice brain; set-up: species or system mice (BALB/c)
guinea pig σ1 receptor [4] = molecular target: T2, guinea pig σ1 receptor; details: read-out: σ1R Kd or Ki; Kd or Ki not specified; cited from earlier work

T1 sequence (O55242 whole entry): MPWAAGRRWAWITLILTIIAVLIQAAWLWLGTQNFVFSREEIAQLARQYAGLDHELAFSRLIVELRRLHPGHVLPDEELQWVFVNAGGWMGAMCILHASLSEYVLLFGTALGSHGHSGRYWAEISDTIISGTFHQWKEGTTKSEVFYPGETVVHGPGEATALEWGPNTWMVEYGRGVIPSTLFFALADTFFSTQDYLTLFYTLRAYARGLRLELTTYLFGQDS
T2 sequence (Q60492 whole entry): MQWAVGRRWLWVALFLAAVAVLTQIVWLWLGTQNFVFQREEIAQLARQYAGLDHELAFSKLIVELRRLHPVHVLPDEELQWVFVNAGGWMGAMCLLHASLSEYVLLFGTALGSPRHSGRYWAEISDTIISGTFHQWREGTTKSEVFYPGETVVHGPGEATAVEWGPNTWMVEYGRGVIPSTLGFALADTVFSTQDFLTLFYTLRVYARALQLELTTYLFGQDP

In the case of COc1ccc(-n2nc(OCCCN3CCCCC3)ccc2=O)cc1 [compound 13, 2-(4-Methoxyphenyl)-6-(3-(piperidin-1-yl)propoxy)pyridazin-3(2H)-one], the logD (Experimental logD) is reported as 0.89 ± 0.06, the “reduction in [^11C]HCC0923 brain uptake” value (σ1R [1]) is reported as roughly 54% and the Ki (guinea pig σ1 receptor [2]) is reported as 10.3 ± 1.1 nM. The “Selectivity (σ2R/σ1R)” value (guinea pig σ1 receptor [2]) was 111.3.

For CCCN1CCC=C(c2cc(-c3ccc(C)cc3)no2)C1 [PD 144418], the Ki (guinea pig σ2 receptor) is given as 1380 ± 179 nM, the “reduction of [^11C]HCC0929 binding in mice brain” value (σ1R [3]; pretreatment 2.99 mg/kg i.v., change between peak at ∼5 min and lowest at 60 min) is given as roughly 67% and the Ki (guinea pig σ1 receptor [4]) is given as 4.3 ± 0.1 nM.

For CN1CCN(CCCOc2ccc(=O)n(-c3ccc(Cl)c(Cl)c3)n2)CC1 [compound 15, 2-(3,4-Dichlorophenyl)-6-(3-(4-methylpiperazin-1-yl)propoxy)pyridazin-3(2H)-one], the “reduction in [^11C]HCC0929 mice brain uptake” value (σ1R [3]; self-blocking, 2.88 mg/kg i.v. 5 min before tracer) was roughly 58%, the logD (Experimental logD) was 1.73 ± 0.08 and the Ki (guinea pig σ1 receptor [2]) was 5.6 ± 0.7 nM. The “Selectivity (σ2R/σ1R)” value (guinea pig σ1 receptor [2]) was 272.8.
